Source: patent US9968609B2, “Sildenafil solutions and methods of making and using same” (Vigorous Solutions Ltd., priority 2014, dated 2018)
Structures can show the parent of a compound that is named as a salt.

Assay: Spectrophotometric absorbance at 228 nm before and after 0.22 micron filtration (Example 12)
Assay type: physicochemical
Settings: 70% ethanol in water, organic solvent or mixture; as prepared in Example 1, 70% ethanol; read-out: concentration at which fully soluble
Procedure: A UV-VIS Genesys 105 Thermo Scientific spectrophotometer was used for the assay. Samples were placed in a UV Kurette Halbmicro/UV Cuvette semi micro [Cat no: 759150] for reading.
Because the reference describes measurements at μg/ml concentrations, both the filtered and unfiltered 18 mg/ml solutions were diluted to 9 μg/ml and 12.5 μg/ml and measured again.

- solubility at 10 min: 18 mg/mL
Structure (SMILES): CCCc1nn(C)c2c(=O)[nH]c(-c3cc(S(=O)(=O)N4CCN(C)CC4)ccc3OCC)nc12 [sildenafil citrate]
